Measured values published in US12629384B2, “Use of 8,9-dihydrocannabidiol compounds” (The Regents of the University of California, priority 2019, dated 2026).

Legend:
[1] = blood and brain concentrations post-mortem by HPLC; format: in vivo, rat; details: samples 90 minutes after administration
Method: Assessment of bioanalytes: Chemicals and reagents. 4,4-Dichlorodiphenyltrichloroethane (DDT, CAS: 50-29-3) was used as the internal analytical standard (IS). HPLC grade n-hexane, acetonitrile, water and ascorbic acid were purchased from Sigma Aldrich (UK) and Fisher Scientific.
Analysis of plasma and brain samples: Stock standard solutions of CBD, H2CBD and DDT were prepared in acetonitrile (5 mg/ml and 1 mg/mL) and stored at −20° C. until use. These were further diluted in acetonitrile:water (62:38), to achieve calibration concentrations of 0.1, 0.2, 0.5, 1.5, 10 μg/mL. Plasma samples were prepared for HPLC using a previously validated method. Briefly, DDT ([…]) was added to 150 μL of rat plasma sample as internal standard and plasma proteins were precipitated by the addition of 600 μL of ice cold acetonitrile followed by water (600 μL), with 1 min vortexing between additions. n-Hexane (3 mL) was added to each tube and following a 5 min vortex, tubes were centrifuged at 1160×g for 15 min at 10° C. and the upper organic layer was carefully decanted by glass pipette and retained. The organic layer was evaporated to dryness under a stream of nitrogen at room temperature and reconstituted in 150 μL of the mixture of acetonitrile and water (62:38) prior to HPLC analysis.
For brain analysis, brains were weighed and 1.5× ice-cold solvent (90% acetonitrile; 10% water; 0.1% ascorbic acid) (w/v) was added followed by homogenization for 1 min. DDT (50 μg/ml) was added to each homogenized brain tissue as internal standard, samples were mixed and allowed to equilibrate overnight at −20° C. Samples were then centrifuged at 3500 rpm for 15 min and the top layer retained. Samples were dried by SpeedVac concentrator at room temperature (Savant SPD131DDA, ThermoFisher Scientific, UK) and reconstituted in 150 μL of the mixture of acetonitrile and water (62:38) for HPLC analysis.
HPLC analysis: An Agilent 1200 series HPLC (Hewlett-Packard, Palo Alto, CA, USA) equipped with a photodiode array detector was used for analysis. 30 μl of all samples were injected and separation was achieved using an ACE C18-PFP 150 mm×4.6 mm, 3 μm particle size column (Hichrom Ltd., Reading, UK), protected by an ACE C18-PFP […] guard cartridge. The mobile phase was a mixture of acetonitrile and water in a ratio of 62:38 (v/v). The flow rate was set at 1 mL/min and column temperature was maintained at 55° C. The absorbance of all compounds of interest (CBD and DH-CBD) was monitored at 220 nm.
(§1) Statistics: Statistical procedures were performed using GraphPad Prism 7 (GraphPad Software, Inc., San Diego, CA, USA).

[2] = test system: PTZ-induced generalised seizures; experiment: acute PTZ-induced generalised seizures in rat (antiseizure study); format: in vivo; details: for maximum seizure severity, median (IQR) / percentage of animals that exhibited tonic-clonic seizures: 200 mg kg^-1 i.p. 1 h before PTZ 85 mg kg^-1; for maximum seizure severity, median (IQR): vehicle median 5, P<0.001 vs vehicle; for percentage of animals that exhibited tonic-clonic seizures: vs vehicle treated group, P<0.05
Method: Animals: Male, Wistar Han rats (70-110 g; Harlan, Bicester, UK) were housed on a 12 h light-dark cycle, with food and water available ad libitum. All experiments were conducted in accordance with the UK Animals (Scientific Procedures) Act, 1986 and ARRIVE guidelines for reporting experiments involving animals; 60 rats were used in total.
Drug administration: Animals were randomly divided into 5 groups of 12 animals per group and received either vehicle (ethanol, Cremophor EL and saline (0.9% w/v NaCl), 2:1:17), a positive control (cannabidiol; CBD; 200 mg kg^−1; Sigma-Aldrich, UK) or 8,9-dihydrocannabidiol (H2CBD; 50, 100 or 200 mg kg^−1) via i.p. injection 1 h prior to administration of the convulsant agent to achieve brain cannabinoid Tmax. The convulsant agent pentylenetetrazole (PTZ; 85 mg kg^−1 in 0.9% w/v NaCl) was administered i.p. 1 h after drug or vehicle treatment. Seizure activity was video recorded for 30 min and video records blinded before offline review and coding using a modified Racine scale (0, normal behaviour; 0.5, abnormal behaviour; 1, isolated myoclonic jerk; 2, atypical clonic seizure; 3, bilateral forelimb clonus; 3.5, bilateral forelimb clonus with body twist; 4, tonic-clonic seizure with suppressed tonic phase; 5, fully developed tonic-clonic seizure).
as §1
In the present study, 60 male, Wistar Han rats were randomly divided into 5 groups of 12 animals each and received either vehicle (ethanol, Cremophor EL, 0.9% w/v saline; 2:1:17), vehicle plus a positive control (CBD; 200 mg kg^−1), or vehicle plus H2CBD (50, 100, or 200 mg kg^−1) via intraperitoneal injection one hour prior to administration of the convulsant agent pentylenetetrazole (PTZ; 85 mg kg^−1 in 0.9% w/v saline).

murine macrophages = details: consistent with CBD; cited from earlier work
[3] = in contrast to CBD; cited from earlier work
cytochrome P450 = details: hepatic microsomal metabolism; consistent with CBD; cited from earlier work
rodent behavior [4] = experiment: open field test, spontaneous locomotor activity; format: in vivo, rat
Method: (§2) 12 adult male Sprague Dawley rats were divided at random into two groups of 6 animals each and received either vehicle (Kolliphor RH-40, dmso, 0.9% w/v saline, 1:2:7) or vehicle plus H2CBD (200 mg kg^−1), administered by intraperitoneal injection. The vehicle differed in this case from the anti-seizure study to avoid the potentially confounding effect of alcohol. The number of animals was also limited to the lowest population necessary to establish an effect at the maximum dosage of drug. At 45 minutes post vehicle and drug injections, rats were placed in the center of the EPM and time spent on the open versus closed arms of the maze was recorded. After an interval of two weeks, the same 12 rats were again divided at random into two groups of 6 animals each and dosed as above. Spontaneous locomotor activity was measured 45 minutes after injection by placing the animals in the center of a 16″×16″ arena. Free movement was allowed for 30 minutes and recorded using an automated activity monitoring system.

rodent behavior [5] = experiment: EPM test; format: in vivo, rat; details: 200 mg kg^-1 i.p., 45 minutes post injection; drug vs vehicle; p=0.49
Method: as §2

[6] = simulated gastric fluid, within one hour; cited from earlier work

CCCCCc1cc(O)c([C@@H]2C=C(C)CC[C@H]2C(C)C)c(O)c1 (relative stereo) [Example H2CBD, 2-(6-Isopropyl-3-methylcyclohex-2-en-1-yl)-5-pentylbenzene-1,3-diol]
blood concentration vs vehicle treated group ([1]; 100 mg/kg i.p., P<0.05): significant concentrations
blood concentration vs vehicle treated group ([1]; 200 mg/kg i.p., P<0.01): significant concentrations
brain tissue concentration vs vehicle treated group ([1]; 200 mg/kg i.p., P<0.01): significant concentrations
maximum seizure severity, median (IQR) [2]: 2 (0.25-4.25 IQR) Racine scale
percentage of animals that exhibited tonic-clonic seizures [2]: significantly fewer animals
anticonvulsant action ([2]; 50, 100, 200 mg kg^-1 i.p., maximal protective effect comparable to matching dose of CBD): dose-dependent anticonvulsant action
antioxidant activity (murine macrophages): antioxidant activity
sedative activity [3]: little if any evidence of sedative activity
effect on cytochrome P450 (cytochrome P450): inhibitory effect
horizontal distance traveled (rodent behavior [4]; 200 mg kg^-1 i.p., 30 min from 45 minutes after injection, drug vs vehicle, P=0.95): no statistically significant differences
time in the arena center (rodent behavior [4]; 200 mg kg^-1 i.p., 30 min from 45 minutes after injection, drug vs vehicle, p=0.14): no statistically significant differences
vertical activity (rodent behavior [4]; 200 mg kg^-1 i.p., 30 min from 45 minutes after injection, drug vs vehicle, p=0.25): no statistically significant differences
behavioral effects (EPM and open field overall) (rodent behavior [4]; high dosage, 200 mg kg^-1): no measurable behavioral effects
percent time spent on the open arms (rodent behavior [5]): No statistically significant differences

C=C(C)[C@@H]1CCC(C)=C[C@H]1c1c(O)cc(CCCCC)cc1O [CBD, cannabidiol]
brain tissue concentration vs vehicle treated group ([1]; 200 mg/kg i.p., P<0.01): significant concentrations
maximum seizure severity, median (IQR) [2]: 2 (0.25-3.75 IQR) Racine scale
percentage of animals that exhibited tonic-clonic seizures [2]: significantly fewer animals
degradation mainly to Δ8- and Δ9-THCs [6]: nearly complete degradation
